From patent US11472787B2, “Docosahexaenoic acid endocannabinoid epoxide derivative compositions” (The Board of Trustees of the University of Illinois, priority 2017, dated 2022)

Tests used:
143B cells [1] = test: Annexin V binding apoptosis assay in 143B cells; format: cell-based; details: 12.5 μM, 24 hours
Description: (§1) All three amino-modified derivatives of 10,11-EDP were tested for their apoptotic activity using a BD biosciences Annexin V binding assay for apoptosis at 12.5 μM concentration (FIG. 2). Cells were grown and maintained in Dulbecco's modified Eagle's medium supplemented with 10% fetal bovine serum, 1% streptomycin and penicillin at 37° C. in a 5% CO2 humidified air atmosphere in 12 well plate to 90% confluency and then appropriate amount of compound or control was added to the well. The cells were incubated for 24 hours and then prepared for apoptosis assays as indicated in BD biosciences Annexin V binding assay kit instructions and analyzed by BD Accuri C6 flow cytometer and FCS flow software. […] However, their effects were not consistent in trend among the three cell lines. The cyclopropyl analog seemed to have the highest pro-apoptotic potential among the three within error limits. […] In 143B cells the increase in pro-apoptotic potential was only 18.8±0.3% for the iso-propyl derivative as compared to 25.7±0.4% for the n-propyl derivative.

HOS cells [2] = test: Annexin V binding apoptosis assay in HOS cells; format: cell-based; details: 12.5 μM, 24 hours
Description: as §1

[3] = molecular target: Fatty acid amide hydrolase (FAAH) (Sus scrofa (Pig), UniProt Q9TUI8); test: Susceptibility to FAAH hydrolysis in pig brain membrane preparations; details: pig forebrain membranes, amide at 20 μM, 40 min
Description: Fatty acid amide hydrolase (FAAH) is a ubiquitously expressed protein in various mammals and the sequence of the protein has shown to be highly conserved in humans, mouse and pig. […] The preparation of pig forebrain membranes was achieved using dounce homogenization in buffer (50 mM Tris pH 7.4, 1 mM EDTA and 3 mM MgCl2) and membrane pelleting as previously described (Hillard, C. J.; Wilkison, D. M.; Edgemond, W. S.; Campbell, W. B. Characterization of the kinetics and distribution of N-arachidonylethanolamine (anandamide) hydrolysis by rat brain. Biochim Biophys Acta 1995, 1257, 249-56). Incubations contained 5 μg forebrain protein in a 0.5 mL reaction containing 50 mM Tris (pH 7.4), 1 mM EDTA, 3 mM MgCl2, and amide at 20 μM. At 40 min reactions were quenched with methanol containing 1 mM PMSF and centrifuged to pellet protein (10,000 g×10 min). The supernatant was collected and analyzed via LC-MS/MS as outlined below.
The products of hydrolysis were measured by LC-MS/MS as indicated in materials and methods section.

MG63 cells [4] = test: Scratch (wound migration) assay in MG63 cells; format: cell-based; details: MG63 cell line
Description: (§2) A scratch assay was performed to analyze the anti-migratory properties of the three derivatives (FIGS. 3A-3C and 7). Cells were grown and maintained in Dulbecco's modified Eagle's medium supplemented with 10% fetal bovine serum, 1% streptomycin and penicillin at 37° C. in a 5% CO2 humidified air atmosphere in a 12 well plate to a confluent monolayer and then a scratch was made across the center and images were taken. The media was changed and appropriate compounds and controls were added and images of the scratch were taken every 2 hours. The images were processed by ImageJ software. In HOS cells (FIG. 3A), all 10,11-EDP derivatives restricted wound migration at 5 μM concentration.

CNR2 (CB2) = CNR2 (CB2) (Homo sapiens (Human), UniProt P34972); test: Presto-Tango β-arrestin recruitment assay, CNR2; format: cell-based; details: HTLA cells
Description: (§3) Binding of the parent compounds to putative receptors CNR1 and CNR2 (cannabinoid receptors 1& 2) was measured by a Presto-Tango assay (FIG. 5A and FIG. 5B). […] HTLA were received from the Roth Lab and CNR1 and CNR2 plasmids were purchased from Addgene. HTLA cells were maintained in DMEM with 10% FBS containing 2 μg/mL of puromycin and 100 μg/mL of hygromycin B at 37° C. in a 5% CO2 humidified air atmosphere and grown to 80-90% confluency. Cells were then seeded at 20,000 cells per 100 uL into poly-L-lysine coated 96-well plate. After 18-24 hrs, cells were transfected with CNR2 (0.1 ug/well) using Calfectin as the transfection reagent. Transfection media was replaced after 12-18 hours with serum-media and proceeded for ˜36 hours. On the day of the assay, serum-media was replaced with serum-free media for 4 hours, then the compounds were added in a log dose manner in DMSO to a final well volume of 200 uL and incubated overnight. The next day, media was removed and 20 μL of Bright-Glo solution was added to the cells and incubated for 20 min at room temperature in the dark and measured for luminescence. Relative luminescence units (RLU) values were normalized to % receptor response, plotted as a function of compound concentration and analyzed using “DoseResp” in OriginPro.

MG63 cells [5] = test: Annexin V binding apoptosis assay in MG63 cells; format: cell-based; details: 12.5 μM, 24 hours
Description: as §1

CNR1 (CB1) = CNR1 (CB1) (Homo sapiens (Human), UniProt P21554); test: Presto-Tango β-arrestin recruitment assay, CNR1; format: cell-based; details: HTLA cells
Description: as §3

HOS cells [6] = test: Scratch (wound migration) assay in HOS cells; format: cell-based; details: 5 μM; for restriction of wound migration as compared to control: over 10 hours
Description: as §2

143B cells [7] = test: Scratch (wound migration) assay in 143B cells; format: cell-based
Description: as §2

HUVEC cells = test: Endothelial tube formation (angiogenesis) assay on matrigel; format: cell-based; details: 0.5 μM or 1 μM compound, 5 hours
Description: Increased angiogenesis is one of the hallmarks of cancer. The development of neo-vascularization is key for the adequate supply of nutrients and oxygen to the site of metastasis. Endothelial tube formation on matrix has been established as a cellular model for angiogenesis. Endothelial HUVEC cells form a networks of tubes when plated on matrigel and the tube formation in presence and absence of treatment can be quantified as a measure of restricted angiogenic potential.
Angiogenesis in endothelial HUVEC cells was measured using abcam angiogenesis kit (ab204726). Briefly, HUVEC cells at passage 2 (p=2) were grown to 80% confluency. The matrigel provided was thawed overnight and 50 μL was put into each well of a 96 well plate that had been chilled overnight in a −20° C. freezer. The plate was rocked slightly and then allowed to incubate at 37° C. for 1 hour. 15,000 HUVEC cells were then plated into the wells and were treated with vehicle control or 0.5 μM or 1 μM compound. A no matrix control and a control with vinblastine (inhibitor of angiogenesis) was also performed. All wells were performed in duplicates. The plates were then incubated for 5 hours at 37° C. […] The wells were imaged using a fluorescent microscope and analyzed using ImageJ with Angiogenesis Analyzer Plugin. […] The tube formation was assessed by Image J analysis.

BV-2 microglial cells = test: Anti-inflammatory assay in LPS-stimulated microglial cells; format: cell-based, mouse; details: BV-2 cells, 4 hours pre-incubation, 25 ng/mL LPS
Description: The anti-inflammatory effect of parent compounds was tested by measuring nitrite production in Bv2 microglial cells and the reduction in pro-inflammatory cytokine IL-6 (FIG. 4). Experiments were performed with mouse BV-2 microglial cells. Cells were grown and maintained in Dulbecco's modified Eagle's medium supplemented with 10% fetal bovine serum, 1% streptomycin and penicillin at 37° C. in a 5% CO2 humidified air atmosphere. BV-2 cells were seeded in 24-well plates (200K cells/mL) and grown to 80-90% confluency. For regioisomer screening and dose response studies, media was replaced with serum-free media and the cells were pre-incubated with the regioisomers for 4 hours prior to stimulation with 25 ng/mL LPS (Sigma-Aldrich, USA). Production of nitric oxide (NO) and cell toxicity and IL-6 production were measured.

Chain of Fatty acid amide hydrolase (FAAH) (Q9TUI8 whole entry): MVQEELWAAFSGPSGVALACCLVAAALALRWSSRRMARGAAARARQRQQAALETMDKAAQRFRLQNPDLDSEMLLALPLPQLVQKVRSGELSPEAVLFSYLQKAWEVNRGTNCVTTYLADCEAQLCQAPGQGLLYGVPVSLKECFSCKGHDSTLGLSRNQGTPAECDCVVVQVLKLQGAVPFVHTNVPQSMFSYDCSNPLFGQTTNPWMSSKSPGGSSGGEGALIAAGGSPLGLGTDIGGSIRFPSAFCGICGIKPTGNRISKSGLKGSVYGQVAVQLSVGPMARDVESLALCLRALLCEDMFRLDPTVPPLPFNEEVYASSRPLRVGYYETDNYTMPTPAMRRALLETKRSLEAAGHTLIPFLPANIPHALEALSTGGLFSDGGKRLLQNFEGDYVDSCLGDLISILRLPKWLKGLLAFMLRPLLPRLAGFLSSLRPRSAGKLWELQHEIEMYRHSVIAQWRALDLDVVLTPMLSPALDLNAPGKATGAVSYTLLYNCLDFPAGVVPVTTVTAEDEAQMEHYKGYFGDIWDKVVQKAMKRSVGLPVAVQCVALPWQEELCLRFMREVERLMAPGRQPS

| Compound | apoptosis (apoptotic potential) (143B cells [1]) [%] | apoptosis (apoptotic potential) (HOS cells [2]) [%] | rate of hydrolysis [3] [pmol min^−1 mg protein^−1] | restriction in wound healing as compared to the control (MG63 cells [4]) | EC50 (CNR2 (CB2)) [nM] | apoptosis (apoptotic potential) (MG63 cells [5]) [%] | EC50 (CNR1 (CB1)) [nM] | inhibition of migration more than vehicle control (HOS cells [6]; 8 and 10 hour time points) | restriction of wound migration as compared to control (HOS cells [6]) | restriction in wound migration as compared to the control (143B cells [7]) | tube formation (angiogenesis) (HUVEC cells) | IL-6 production (BV-2 microglial cells) | nitrite production (BV-2 microglial cells) |
| --- | --- | --- | --- | --- | --- | --- | --- | --- | --- | --- | --- | --- | --- |
| CC/C=C\C/C=C\C/C=C\CC1OC1C/C=C\C/C=C\CCC(=O)NC1CC1 (stereo not shown) [10,11-EDP-CA, (4Z,7Z)—N-Cyclopropyl-9-(3-((2Z,5Z,8Z)-undeca-2,5,8-trien-1-yl)oxiran-2-yl)nona-4,7-dienamide] | 21.3±1.9 | 27.19±4.05 | 5.17±0.06 | comparable to 10, 1-EDP-EA | 0.46 | 17.09±4.4 | 0.03 | 4.5-6 times | most potent | most potent | – | – | – |
| CC/C=C\C/C=C\C/C=C\CC1OC1C/C=C\C/C=C\CCC(=O)NCCO (stereo not shown) [10,11-EDP-EA, reference compound] | – | – | 30.0±0.3 | 1-2 times | 22.5 | – | 0.43 | – | 1.00-1.44 times | 1-1.9 times | Prevent Angiogenesis | – | – |
| CC/C=C\C/C=C\C/C=C\CC1OC1C/C=C\C/C=C\CCC(=O)NC(C)CO (stereo not shown) [10,11-EDP-IA, (4Z,7Z)—N-(1-Hydroxypropan-2-yl)-9-(3-((2Z,5Z,8Z)-undeca-2,5,8-trien-1-yl)oxiran-2-yl)nona-4,7-dienamide] | 18.8±0.3 | 20.15±1.75 | 0.99±0.04 | slightly poorer than the control | 0.08 | 17.48±2.8 | 0.07 | – | 1-1.75 times | 1-3.9 times | – | – | – |
| CC/C=C\C/C=C\C/C=C\CC1OC1C/C=C\C/C=C\CCC(=O)NCCCO (stereo not shown) [10,11-EDP-NA, (4Z,7Z)—N-(3-Hydroxypropyl)-9-(3-((2Z,5Z,8Z)-undeca-2,5,8-trien-1-yl)oxiran-2-yl)nona-4,7-dienamide] | 25.7±0.4 | 17.05±1.4 | – | slightly poorer than the control | 7.3 | 15.15±3.28 | 0.19 | – | 1-1.7 times | 1-1.47 times | – | – | – |
| CCC1OC1C/C=C\C/C=C\C/C=C\C/C=C\C/C=C\CCC(=O)NCCO (stereo not shown) [19,20-EDP-EA] | – | – | 150 | – | – | – | – | – | – | – | – | reduction in 11-6 and nitrite in a dose dependent manner | reduction in 11-6 and nitrite in a dose dependent manner |
